Measurements taken from patent US11267810B2, “Aminopyrimidine compound and composition comprising same and use thereof” (Shenzhen TargetRx, Inc., priority 2017, dated 2022).
pIC50: −log10 of the molar value. Like-named read-outs stand apart in the source and are kept apart here.

Assays:
[1] = Pharmacokinetic experiment in rats; type: in vivo, Sprague-Dawley rats; conditions: rat; for AUC(0-t) / Cmax / Tmax / half-life / AUC(0-inf) / clearance / MRT inf / Vd / bioavailability: male, Sprague-Dawley, plasma; for AUC(0-inf): read-out: AUCINF—pred; for clearance: read-out: Cl—pred (converted); for MRT inf: read-out: MRTINF—pred; for Vd: read-out: Vz—pred; for bioavailability: PO 10 mg/kg vs IV 0.5 mg/kg
Experimental: Six male Sprague-Dawley rats, 7 to 8 weeks old, weighing approximately 210 g, were divided into 2 groups with 3 rats in each group. The pharmacokinetic differences were compared after administering to the rats a single dose of compounds through vein (in vein 0.5 mg/kg) or mouth (orally 10 mg/kg).
The rats were fed with standard feed, given water, and fasted 16 hours before the experiment. The drugs were dissolved with PEG400 and dimethyl sulfoxide. Orbital blood was collected at the time point of 0.083, 0.25, 0.5, 1, 2, 4, 6, 8, 12 and 24 hours after administration.
The rats were anesthetized for a short time after inhaling ether, and 300 μL of blood sample was collected from the orbit and put into a test tube, which contains 30 μL of 1% heparin salt solution. The test tubes were dried overnight at 60° C. prior to use. After the blood sample collection at the last time point, the rats were killed after the ether anesthesia.
Immediately after the blood sample collection, the test tubes were gently inverted at least 5 times to ensure the fully mixing and placed them on ice. The blood samples were centrifuged at 4° C., 5000 rpm for 5 minutes to separate the plasma from the red blood cells. 100 μL of plasma was pipetted into a clean plastic centrifuge tube, with the name of the compound and time point on it. The plasma was stored at −80° C. before analysis, and LC-MS/MS was used to determine the concentration of the compounds disclosed herein in plasma. Pharmacokinetic parameters were calculated based on the plasma concentrations of each animal at different time points.

[2] = target: EGFR [L858R/T790M] (Homo sapiens (Human), UniProt P00533, L858R/T790M); assay: EGFR [L858R/T790M] kinase assay (HTRF Kinase TK kit); type: biochemical
Excerpt: (§1) WT EGFR (Cana, Cat. No. 08-115), EGFR [L858R] (Carna, Cat. No. 08-502), EGFR [L858R/T790M] (Carna, Cat. No. 08-510), ATP (Sigma, Cat. No. A7699-1G), DMSO (Sigma, Cat. No. D2650), 96-well plate (Corning, Cat. No. 3365), 384-well plate (Greiner, Cat. No. 784076), HTRF Kinase TK Kit (Cisbio, Cat. No. 62TK0PEJ), Erlotinib (Selleckchem, Cat. No. S7787), EGFR [d746-750] (Life Technologies, Cat. No. PV6178), 5× Kinase Buffer A (Life Technologies, Cat. No. PV3186), Kinase Tracer 199 (Life Technologies, Cat. No. PV5830), LanthaScreen® Eu-anti-GST antibody (Life Technologies, Cat. No. PV5594).
(§2) Compound preparation: the test compound was dissolved in DMSO to make a 20 mM stock solution. Then, it was diluted in DMSO with a 3-fold series gradient dilution for 10 times. The dilutions were diluted 10 fold with buffer when dosing.
(§3) WT EGFR and EGFR [L858R/T790M] kinase assay: WT EGFR or EGFR [L858R/T790M] kinase was mixed with different concentrations of pre-diluted compounds for 10 minutes in 5× Kinase Buffer A in duplicate. The corresponding substrate and ATP were added and reacted at room temperature for 20 minutes (in which a negative and a positive control were set: the negative control is blank and the positive control is AZD9291). After the reaction, the detection reagent (the reagent in the HTRF Kinase TK kit) was added, and after incubation at room temperature for 30 minutes, the enzyme activity in the presence of the compounds of the present disclosure at each concentration was measured by an Evnvision microplate reader, and the inhibition of the enzyme by the compound at each concentrations were calculated. The inhibitions of the enzyme activity by the compounds at different concentrations were then fitted using Graphpad 5.0 software according to the four-parameter equation, and the IC50 values were calculated.

[3] = test system: lung cancer cells HCC827 (Del19); assay: MTS cell viability assay, HCC827; type: cell-based; conditions: Homo sapiens, 72 hours
Experimental: (§4) Cell line: Skin cancer cell line A431 (purchased from the American Type Culture Collection (ATCC)); lung cancer cells NCI-H1975 (purchased from the American Type Culture Collection (ATCC)) and HCC827 (purchased from the American Type Culture Collection (ATCC)). All of the cells were cultured in RPMI1640 medium containing 10% fetal bovine serum, 100 U/ml penicillin, and 100 μg/ml streptomycin.
(§5) Reagents and materials: RPMI-1640 (GIBCO, Cat. No. A10491-01); fetal bovine serum (GIBCO, Cat. No. 10099141); 0.25% trypsin-EDTA (GIBCO, Cat. No. 25200); penicillin-streptomycin, liquid (GIBCO, Cat. No. 15140-122); DMSO (Sigma, Cat. No. D2650); MTS Test Kit (Promega, Cat. No. G3581), 96-well plate (Corning, Cat. No. 3365).
(§6) Compound preparation: the test compound was dissolved in DMSO to make a 20 mM stock solution and stored at −20° C. It was diluted in DMSO with a 3-fold series gradient dilution for 10 times. The dilutions were diluted 4 fold with cell culture medium.
(§7) MTS cell viability assay: cells in logarithmic growth phase was digested with 0.25% trypsin-EDTA, and 150 μl of the cells was inoculated in 96-well plates at an optimized density. After 24 hours, the compound diluted 4 fold by adding the medium, 50 μl/well (generally 10 Concentrations were selected: 100, 33.3, 11.1, 3.70, 1.23, 0.412, 0.137, 0.0457, 0.0152, 0.00508 μM). A well added with the same volume of 0.5% DMSO was used as a control. After the cells were cultured for further 72 hours, the cell viability was detected with MTS.
(§8) Specific procedure: cells were adhered, the medium was discarded, and a mixture containing 20 μL MTS and 100 μL medium was added to each well. The OD490 was detected after being placed in the incubator for 1-4 hours, and the OD650 value was used as a reference. A dose-effect curve was prepared using GraphPad Prism software and IC50 was calculated.

[4] = target: WT EGFR (Homo sapiens (Human), UniProt P00533); assay: WT EGFR kinase assay (HTRF Kinase TK kit); type: biochemical
Excerpt: as §1, §2, §3

[5] = test system: EGFR mutant kinase; conditions: cited from earlier work
[6] = test system: lung cancer cells NCI-H1975 (L858R/T790M); assay: MTS cell viability assay, NCI-H1975; type: cell-based; conditions: Homo sapiens, 72 hours
Experimental: as §4, §5, §6, §7, §8

[7] = test system: Skin cancer cell line A431 (WT); assay: MTS cell viability assay, A431; type: cell-based; conditions: Homo sapiens, A-431, 72 hours
Experimental: as §4, §5, §6, §7, §8

EGFR [L858R/T790M], sequence (P00533 25-1210 T790M/L858R): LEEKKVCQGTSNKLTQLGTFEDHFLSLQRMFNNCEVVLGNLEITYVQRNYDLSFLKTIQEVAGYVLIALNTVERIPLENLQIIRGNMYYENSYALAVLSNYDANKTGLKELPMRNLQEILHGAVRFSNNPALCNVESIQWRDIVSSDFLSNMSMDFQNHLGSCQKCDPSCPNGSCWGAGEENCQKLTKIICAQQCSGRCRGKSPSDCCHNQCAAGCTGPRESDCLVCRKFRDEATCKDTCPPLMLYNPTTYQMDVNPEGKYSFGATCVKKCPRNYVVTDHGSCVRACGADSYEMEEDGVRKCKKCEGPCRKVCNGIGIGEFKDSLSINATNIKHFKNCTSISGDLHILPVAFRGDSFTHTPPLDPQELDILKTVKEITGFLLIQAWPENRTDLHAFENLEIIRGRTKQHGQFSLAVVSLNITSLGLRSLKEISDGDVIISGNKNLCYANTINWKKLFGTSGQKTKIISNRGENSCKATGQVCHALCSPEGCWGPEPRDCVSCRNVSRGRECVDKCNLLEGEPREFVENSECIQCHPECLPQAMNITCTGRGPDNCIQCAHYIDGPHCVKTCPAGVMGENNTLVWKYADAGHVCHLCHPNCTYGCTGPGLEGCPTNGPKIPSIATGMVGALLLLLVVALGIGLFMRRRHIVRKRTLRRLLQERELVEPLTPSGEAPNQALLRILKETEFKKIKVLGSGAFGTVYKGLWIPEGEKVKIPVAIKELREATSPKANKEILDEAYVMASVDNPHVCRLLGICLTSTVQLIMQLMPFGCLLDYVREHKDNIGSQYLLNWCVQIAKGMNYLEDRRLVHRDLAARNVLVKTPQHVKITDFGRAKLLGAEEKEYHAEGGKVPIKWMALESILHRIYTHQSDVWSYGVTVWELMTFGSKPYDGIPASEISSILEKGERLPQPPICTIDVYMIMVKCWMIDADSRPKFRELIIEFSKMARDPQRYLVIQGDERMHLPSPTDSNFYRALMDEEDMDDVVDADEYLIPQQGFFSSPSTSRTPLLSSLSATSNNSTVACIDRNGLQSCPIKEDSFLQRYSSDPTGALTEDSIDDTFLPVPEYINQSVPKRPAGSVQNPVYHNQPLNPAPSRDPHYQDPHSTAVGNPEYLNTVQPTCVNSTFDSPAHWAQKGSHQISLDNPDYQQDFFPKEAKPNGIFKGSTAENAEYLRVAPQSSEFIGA
WT EGFR, sequence (P00533 25-1210): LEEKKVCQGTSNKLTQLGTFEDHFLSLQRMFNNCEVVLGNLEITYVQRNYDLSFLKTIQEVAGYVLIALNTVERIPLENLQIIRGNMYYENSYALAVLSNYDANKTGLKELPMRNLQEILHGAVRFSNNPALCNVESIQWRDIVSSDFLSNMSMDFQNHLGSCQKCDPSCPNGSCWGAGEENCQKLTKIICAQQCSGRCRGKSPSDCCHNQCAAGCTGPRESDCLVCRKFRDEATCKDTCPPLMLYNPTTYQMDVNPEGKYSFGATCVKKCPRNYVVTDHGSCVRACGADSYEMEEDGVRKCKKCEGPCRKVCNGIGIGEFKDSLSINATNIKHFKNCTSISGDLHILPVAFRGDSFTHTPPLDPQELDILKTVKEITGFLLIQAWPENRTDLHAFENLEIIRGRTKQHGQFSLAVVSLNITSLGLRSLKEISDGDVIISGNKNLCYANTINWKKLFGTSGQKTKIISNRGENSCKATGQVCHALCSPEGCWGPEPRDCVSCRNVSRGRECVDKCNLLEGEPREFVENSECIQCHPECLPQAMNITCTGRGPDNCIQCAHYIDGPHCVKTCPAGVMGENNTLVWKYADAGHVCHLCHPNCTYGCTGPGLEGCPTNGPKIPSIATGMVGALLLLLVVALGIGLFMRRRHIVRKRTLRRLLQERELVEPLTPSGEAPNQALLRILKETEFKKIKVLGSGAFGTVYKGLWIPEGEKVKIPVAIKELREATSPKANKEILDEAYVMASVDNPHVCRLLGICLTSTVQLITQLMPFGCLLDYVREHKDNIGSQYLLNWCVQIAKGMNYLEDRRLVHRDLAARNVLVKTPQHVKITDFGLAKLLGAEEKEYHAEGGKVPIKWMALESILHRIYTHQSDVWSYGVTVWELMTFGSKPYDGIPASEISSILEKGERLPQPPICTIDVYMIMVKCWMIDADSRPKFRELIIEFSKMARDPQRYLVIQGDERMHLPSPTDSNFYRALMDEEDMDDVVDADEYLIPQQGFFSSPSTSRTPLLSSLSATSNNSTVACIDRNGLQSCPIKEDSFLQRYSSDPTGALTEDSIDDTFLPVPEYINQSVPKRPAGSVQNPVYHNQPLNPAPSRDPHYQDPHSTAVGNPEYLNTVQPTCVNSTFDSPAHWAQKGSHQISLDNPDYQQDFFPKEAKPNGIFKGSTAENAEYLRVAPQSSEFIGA

| Structure (SMILES) | AUC(0-t) ([1]; IV 0.5 mg/kg single dose) [ng·h/mL] | Cmax ([1]; IV 0.5 mg/kg single dose) [ng/mL] | Tmax ([1]; IV 0.5 mg/kg single dose) [h] | half-life ([1]; IV 0.5 mg/kg single dose) [h] | AUC(0-inf) ([1]; IV 0.5 mg/kg single dose) [ng·h/mL] | clearance ([1]; IV 0.5 mg/kg single dose) [mL/min/kg] | MRT inf ([1]; IV 0.5 mg/kg single dose) [h] | Vd ([1]; IV 0.5 mg/kg single dose) [L/kg] | AUC(0-t) ([1]; PO 10 mg/kg single dose) [ng·h/mL] | Cmax ([1]; PO 10 mg/kg single dose) [ng/mL] | Tmax ([1]; PO 10 mg/kg single dose) [h] | half-life ([1]; PO 10 mg/kg single dose) [h] | AUC(0-inf) ([1]; PO 10 mg/kg single dose) [ng·h/mL] | MRT inf ([1]; PO 10 mg/kg single dose) [h] | bioavailability [1] [%] | pIC50 [2] | pIC50 [3] | pIC50 [4] | pIC50 [6] | pIC50 [7] | also measured |
| --- | --- | --- | --- | --- | --- | --- | --- | --- | --- | --- | --- | --- | --- | --- | --- | --- | --- | --- | --- | --- | --- |
| C=CC(=O)Nc1cc(Nc2nccc(-n3cc(CN(C)C)c(-c4ccccc4)n3)n2)c(OC)cc1N1CCOCC1 [Compound T-0, reference compound] | 477 | 323 | 0.08 | 3.78 | 498 | 17.5 | 2.95 | 5.73 | 1600 | 115 | 1.33 | 7.55 | 1800 | 9.19 | 16.7 | > 9.52 | 8.38 | > 8.70 | 8.33 | 6.35 to 6.70 | Cl—pred ([1]; PO 10 mg/kg single dose): 94.2 mL/min/kg; Vz—pred ([1]; PO 10 mg/kg single dose): 61.56 L/kg; inhibitory activity against EGFR mutant kinase (in words) [5]: significant inhibitory activity |
| [2H]c1c(C([2H])([2H])N(C)C)c(-c2ccccc2)nn1-c1ccnc(Nc2cc(NC(=O)C=C)c(N3CCOCC3)cc2OC)n1 [Compound T-1, N-(5-((4-(4-((dimethylamino)methyl-d2)-3-phenyl-1H-pyrazol-1-yl-5-d)pyrimidin-2-yl)amino)-4-methoxy-2-morpholinophenyl)acrylamide] | – | – | – | – | – | – | – | – | – | – | – | – | – | – | – | > 9.52 | 8.81 | > 8.70 | 8.44 | 6.35 to 6.70 | – |
| [2H]c1c([2H])c([2H])c(-c2nn(-c3ccnc(Nc4cc(NC(=O)C=C)c(N5CCOCC5)cc4OC)n3)cc2CN(C([2H])([2H])[2H])C([2H])([2H])[2H])c([2H])c1[2H] [Compound T-6, N-(5-((4-(4-((bis(methyl-d3)amino)methyl)-3-(phenyl-d5)-1H-pyrazol-1-yl)pyrimidin-2-yl)amino)-4-methoxy-2-morpholinophenyl)acrylamide] | – | – | – | – | – | – | – | – | – | – | – | – | – | – | – | > 9.52 | 8.70 | > 8.70 | 8.37 | 6.35 to 6.70 | – |
| [2H]c1c([2H])c([2H])c(-c2nn(-c3ccnc(Nc4cc(NC(=O)C=C)c(N5CCOCC5)cc4OC)n3)cc2CN(C)C)c([2H])c1[2H] [Compound T-2, N-(5-((4-(4-((dimethylamino)methyl)-3-(phenyl-d5)-1H-pyrazol-1-yl)pyrimidin-2-yl)amino)-4-methoxy-2-morpholinophenyl)acrylamide] | – | – | – | – | – | – | – | – | – | – | – | – | – | – | – | > 9.52 | 8.70 | > 8.70 | 8.45 | 6.35 to 6.70 | – |
| [2H]C([2H])([2H])N(Cc1cn(-c2ccnc(Nc3cc(NC(=O)C=C)c(N4CCOCC4)cc3OC)n2)nc1-c1ccccc1)C([2H])([2H])[2H] [Compound T-4, N-(5-((4-(4-((bis(methyl-d3)amino)methyl)-3-phenyl-1H-pyrazol-1-yl)pyrimidin-2-yl)amino)-4-methoxy-2-morpholinophenyl)acrylamide] | – | – | – | – | – | – | – | – | – | – | – | – | – | – | – | > 9.52 | 8.60 | > 8.70 | 8.30 | 6.35 to 6.70 | – |
| [2H]C([2H])([2H])Oc1cc(N2CCOCC2)c(NC(=O)C=C)cc1Nc1nccc(-n2cc(CN(C)C)c(-c3ccccc3)n2)n1 [Compound T-3, N-(5-((4-(4-((dimethylamino)methyl)-3-phenyl-1H-pyrazol-1-yl)pyrimidin-2-yl)amino)-4-(methoxy-d3)-2-morpholinophenyl)acrylamide] | 436 | 299 | 0.08 | 3.56 | 456 | 18.5 | 3.34 | 5.71 | 1650 | 120 | 4 | 7.48 | 1920 | 8.67 | 18.9 | > 9.52 | 8.64 | > 8.70 | 8.34 | 6.35 to 6.70 | Cl—pred ([1]; PO 10 mg/kg single dose): 88 mL/min/kg; Vz—pred ([1]; PO 10 mg/kg single dose): 56.99 L/kg; Cmax, AUClast and oral availability (F %) compared with compound T-0 (in words) ([1]; orally): better metabolic parameters |
